Source: patent publication US11524938B2, “Aromatic sulfonamide derivatives” (Bayer Pharma Aktiengesellschaft, priority 2016, dated 2022)

Tests used:
human P2X4 = target: T1, human P2X4 (Homo sapiens, UniProt Q99571); test: FLIPR assay, human P2X4 1321N1 Astrocytoma cells; assay type: cell-based; details: agonist Mg-ATP 0.5 μM (EC80)
T1 sequence (Q99571 1-388): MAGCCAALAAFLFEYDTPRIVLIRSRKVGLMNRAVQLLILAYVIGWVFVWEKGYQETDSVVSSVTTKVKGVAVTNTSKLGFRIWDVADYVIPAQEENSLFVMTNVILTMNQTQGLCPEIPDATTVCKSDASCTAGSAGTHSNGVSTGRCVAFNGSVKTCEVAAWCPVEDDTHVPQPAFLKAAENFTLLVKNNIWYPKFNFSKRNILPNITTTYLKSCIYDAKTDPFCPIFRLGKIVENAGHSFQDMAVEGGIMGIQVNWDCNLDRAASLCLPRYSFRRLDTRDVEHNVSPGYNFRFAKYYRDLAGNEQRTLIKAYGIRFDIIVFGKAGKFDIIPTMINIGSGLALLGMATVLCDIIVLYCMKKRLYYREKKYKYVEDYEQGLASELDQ
Procedure: (§1) 1321N1 Astrocytoma cells stably expressing human P2X4 or rat P2X4 or mouse P2X4 were plated in Collagen I TC-treated microplate at a seeding density of 10000 cells/well and incubated overnight. P2X4 function was assessed by measuring intracellular calcium changes using the calcium-chelating dye Fluo8-AM (Molecular Devices) on a fluorescent imaging plate reader (FLEX/FLIPR station; Molecular Devices). On the day of the assay, the medium was removed and the cells were incubated for 30 min at 37 °C and 5% CO2 in 30 μL of dye buffer (Hank's balanced salt solution, 10 mM HEPES, 1.8 mM CaCl2, 1 mM MgCl2, 2 mM probenecid, 5 mM D-glucose monohydrate, 5 μM Fluo8-AM, pH=7.4). Compounds diluted in probenecid buffer (Hank's balanced salt solution, 10 mM HEPES, 1.8 mM CaCl2, 1 mM MgCl2, 2 mM probenecid, 5 mM D-glucose monohydrate, pH=7.4) were added in a volume of 10 μL and allowed to incubate for 30 min at room temperature. The final assay DMSO concentration was 0.25%. The agonist, Mg-ATP (Sigma), was added in a volume of 10 μL at a concentration representing the EC80 value. EC80 was determined to be 0.5 μM for human and mouse P2X4 and 5 μM for rat P2X4. The fluorescence was measured for an interval of 120 sec at 2 sec intervals. The excitation and emission wavelengths used to monitor fluorescence were 470-495 nm and 515-575 nm, respectively. The data was analyzed based on the increase in peak relative fluorescence units (RFU) compared to the basal fluorescence and the data was normalized to the agonist control. The compounds were tested in triplicates per plate and mean values were plotted in Excel XLFit to determine IC50 values, percentage of maximal inhibition and the Hill coefficients.

mouse P2X4 = target: T2, mouse P2X4 (Mus musculus, UniProt Q9JJX6); test: FLIPR assay, mouse P2X4 1321N1 Astrocytoma cells; assay type: cell-based; details: agonist Mg-ATP 0.5 μM (EC80)
T2 sequence (Q9JJX6 1-388): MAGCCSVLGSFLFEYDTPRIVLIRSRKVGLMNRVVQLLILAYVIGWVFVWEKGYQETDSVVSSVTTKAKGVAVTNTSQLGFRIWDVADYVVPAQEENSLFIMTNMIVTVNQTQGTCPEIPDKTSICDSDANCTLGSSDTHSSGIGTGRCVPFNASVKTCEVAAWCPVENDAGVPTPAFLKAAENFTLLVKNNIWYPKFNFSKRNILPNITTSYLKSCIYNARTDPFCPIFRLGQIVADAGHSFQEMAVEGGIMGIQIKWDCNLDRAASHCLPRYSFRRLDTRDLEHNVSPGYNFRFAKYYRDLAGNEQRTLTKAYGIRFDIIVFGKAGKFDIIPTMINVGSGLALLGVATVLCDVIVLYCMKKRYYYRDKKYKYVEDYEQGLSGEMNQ
Procedure: as §1

Sprague Dawley rats = test: CFA-Induced Mechanical Hyperalgesia Model in Rat; assay type: in vivo; details: 3 oral doses, 26 h after CFA, vs vehicle
Procedure: Male Sprague Dawley rats were used. Mechanical hyperalgesia was induced by injecting […] of Complete Freund's Adjuvant (CFA) into the plantar surface of the left hind paw. Mechanical hyperalgesia was measured using the Pressure Application Measurement apparatus (Ugo Basile, Gemonio, Italy). Briefly, a linearly increasing pressure was applied to an area of approximately 50 mm^2 of the plantar side of the hind paw, until a behavioural response (paw withdrawal) was observed or until the pressure reached 1000 gf. The pressure at which the behavioural response occurred was recorded as the Paw Withdrawal Threshold (PWT). Both CFA-injected and contralateral PWTs were determined for each rat, in each treatment group and at each time point of the studies. Rats received 3 oral doses of test compound at approximately 12 hours interval starting 1 hour prior to CFA injection. Mechanical hyperalgesia testing was performed 2 hours before CFA injection and 2 hours after the last dosing (FIGS. 4a and 4b).
FIGS. 4a and 4b as nonbinding explanatory examples of compounds according to the invention represent Paw Withdrawal Threshold in gramm (y-axis) of the ipsilateral paw of all tested animals before CFA treatment and 26 h after CFA treatment and vehicle or Example 39 (FIG. 4a) or 326 (FIG. 4b) treatment. […]

rat P2X4 = target: T3, rat P2X4 (Rattus norvegicus, UniProt P51577); test: FLIPR assay, rat P2X4 1321N1 Astrocytoma cells; assay type: cell-based; details: agonist Mg-ATP 5 μM (EC80)
T3 sequence (P51577 1-388): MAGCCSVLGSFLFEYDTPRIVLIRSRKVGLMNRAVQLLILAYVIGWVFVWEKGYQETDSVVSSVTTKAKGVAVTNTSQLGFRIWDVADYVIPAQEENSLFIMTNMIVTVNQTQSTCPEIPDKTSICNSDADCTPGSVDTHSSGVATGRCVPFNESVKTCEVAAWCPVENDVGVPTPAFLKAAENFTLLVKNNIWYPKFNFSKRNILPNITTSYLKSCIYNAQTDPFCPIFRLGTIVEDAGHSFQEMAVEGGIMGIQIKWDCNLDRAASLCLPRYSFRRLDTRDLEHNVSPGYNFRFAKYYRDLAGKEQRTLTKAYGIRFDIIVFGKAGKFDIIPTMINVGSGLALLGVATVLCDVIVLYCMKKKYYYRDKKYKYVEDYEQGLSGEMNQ
Procedure: as §1

Structure (SMILES) | Human P2X4 1321N1 Astrocytoma Cells (FLIPR Assay) avg Efficacy [%] (human P2X4) | Mouse P2X4 1321N1 Astrocytoma Cells (FLIPR Assay) avg Efficacy [%] (mouse P2X4) | Paw Withdrawal Threshold (PWT), ipsilateral paw (Sprague Dawley rats) | Rat P2X4 1321N1 Astrocytoma Cells (FLIPR Assay) avg Efficacy [%] (rat P2X4)
N#Cc1cnn(-c2ccc(NC(=O)Cc3ccccc3Cl)cc2S(N)(=O)=O)c1 [Example 39, 2-(2-Chlorophenyl)-N-[4-(4-cyano-1H-pyrazol-1-yl)-3-sulfamoylphenyl]acetamide] | 83% | 87% | significantly increased PWT | 87%
NS(=O)(=O)c1cc(NC(=O)Cc2ccccc2Cl)ccc1-c1cnn(C(F)F)c1 [Example 326, 2-(2-Chlorophenyl)-N-{4-[1-(difluoromethyl)-1H-pyrazol-4-yl]-3-sulfamoylphenyl}acetamide] | 80% | 87% | significantly increased PWT | 99%
